Calls of active or inactive are those of the source. The calls are words filed in the database; no cut-off is given here.
Assays:
[1] = biological target: T1, Glucose-6-phosphate 1-dehydrogenase (Homo sapiens, UniProt P11413); assay: Inhibition of G6PD (unknown origin) assessed as reduction in 6-phospho-D-glucono-1,5-lactone and NADPH production using glucose-6-phosphate and NADP+ as substrate incubated for 15 mins by UV absorption photometry assay
[2] = biological target: T1, Glucose-6-phosphate 1-dehydrogenase; assay: Binding affinity to G6PD (unknown origin) assessed as equilibrium dissociation constant by surface plasmon resonance assay
[3] = biological target: T1, Glucose-6-phosphate 1-dehydrogenase; assay: Non-competitive inhibition of G6PD (unknown origin) using glucose-6-phosphate and varying concentrations of NADP+ as substrate by Michaelis-Menten analysis
[4] = test system: OVCAR-3; assay: Inhibition of colony formation in human OVCAR-3 cells overexpressing G6PD incubated for 14 days by crystal violet staining based assay; assay type: functional, cell-based
[5] = biological target: T1, Glucose-6-phosphate 1-dehydrogenase; assay: Reversible inhibition of G6PD (unknown origin) using glucose-6-phosphate and NADP+ as substrate measured after dilution of 12XIC50 to 0.6XIC50 by dilution based analysis
[6] = biological target: T1, Glucose-6-phosphate 1-dehydrogenase; assay: Inhibition of G6PD in human OVCAR-3 cells assessed as thermal instability of the enzyme by CETSA analysis; assay type: cell-based
[7] = biological target: T1, Glucose-6-phosphate 1-dehydrogenase; assay: Competitive inhibition of G6PD (unknown origin) using varying concentrations of G6P and NADP+ as substrate by Michaelis-Menten analysis
[8] = biological target: T1, Glucose-6-phosphate 1-dehydrogenase; assay: Non-competitive inhibition of G6PD (unknown origin) using varying concentrations of G6P and NADP+ as substrate by Michaelis-Menten analysis
[9] = biological target: T1, Glucose-6-phosphate 1-dehydrogenase; assay: Competitive inhibition of G6PD (unknown origin) using glucose-6-phosphate and varying concentrations of NADP+ as substrate by Michaelis-Menten analysis

T1 sequence (P11413 whole entry): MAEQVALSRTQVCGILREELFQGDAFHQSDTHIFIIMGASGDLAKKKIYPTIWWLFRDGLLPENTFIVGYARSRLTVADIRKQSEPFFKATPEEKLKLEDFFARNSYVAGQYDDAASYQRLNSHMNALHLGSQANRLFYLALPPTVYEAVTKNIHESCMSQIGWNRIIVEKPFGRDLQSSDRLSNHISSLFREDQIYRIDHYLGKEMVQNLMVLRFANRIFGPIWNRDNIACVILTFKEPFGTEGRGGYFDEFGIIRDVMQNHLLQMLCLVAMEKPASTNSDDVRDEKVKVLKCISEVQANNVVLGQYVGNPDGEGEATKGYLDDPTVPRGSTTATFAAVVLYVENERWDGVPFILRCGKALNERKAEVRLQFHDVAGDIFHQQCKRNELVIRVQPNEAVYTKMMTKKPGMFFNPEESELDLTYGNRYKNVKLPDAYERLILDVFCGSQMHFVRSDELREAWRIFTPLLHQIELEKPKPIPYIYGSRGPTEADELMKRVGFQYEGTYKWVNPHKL

Q: For O=c1c(O)c(-c2ccc(O)c(O)c2)oc2cc(O)cc(O)c12, which IC50 [1] is on record?
A: 31 µM

Q: How did the IC50 [1] turn out when O=C(/C=C/c1ccc(O)c(O)c1)O[C@@H]1C[C@](O)(C(=O)O)C[C@@H](OC(=O)/C=C/c2ccc(O)c(O)c2)[C@H]1O was run?
A: 37.7 µM

Q: With OC[C@H]1O[C@@H](Oc2cc(O)cc(/C=C/c3ccc(O)cc3)c2)[C@H](O)[C@@H](O)[C@@H]1O [PICEID] as the compound, how does the IC50 [1] read?
A: 74.5 µM

Q: How did the IC50 [1] turn out when C[C@]12CC[C@H](O)CC1=CC[C@@H]1[C@@H]2CC[C@]2(C)C(=O)CC[C@@H]12 [PRASTERONE] was run?
A: 12.5 µM

Q: What does the source list for COc1cc(O)c2c(c1)oc(=O)c1c3cc(O)c(O)cc3oc21 [WEDELOLACTONE]?
A: Kd [2]: 3.64 µM; Ki [3]: 5.79 µM; EC50 ([4]; OVCAR-3, 336 h): 10.6 µM; inhibition ([4]; time 14.0 day): Dose-Dependent Effect; inhibition [5]: Active; IC50 [1]: 5.18 µM; inhibition [6]: Active; Ki [7]: 2.54 µM; Ki [8]: 9.94 µM; Ki [9]: 1.19 µM
